Measured values from US7390806B2, “Antibiotics containing borinic acid complexes and methods of use” (Anacor Pharmaceuticals, Inc., priority 2002, dated 2008).
≈ marks a conversion by molar mass, not a printed value.

Key:
M. tuberculosis H37Rv = assay: Anti-mycobacterium in vitro activity, H37Rv; type: cell-based, Mycobacterium tuberculosis; settings: Sensitive strain; for MIC: Mycobacterium tuberculosis, H37RV
S. aureus ATCC 29213 = assay: MIC determination, S. aureus ATCC 29213; type: cell-based, Staphylococcus aureus
[1] = system: S. epidermidis ATCC 12228; assay: MIC determination, S. epidermidis ATCC 12228; type: cell-based, Staphylococcus epidermidis
S. pneumoniae ATCC 6301 = assay: MIC determination, S. pneumoniae ATCC 6301; type: cell-based, Streptococcus pneumoniae; settings: for MIC S. pneumoniae ATCC 6301: Table 1
E. faecalis ATCC 29212 = assay: MIC determination, E. faecalis ATCC 29212; type: cell-based, Enterococcus faecalis
E. faecium CT-26 = assay: MIC determination, E. faecium CT-26; type: cell-based, Enterococcus faecium
[2] = system: Candida albicans ATCC 90028; assay: Antifungal in vitro MIC, Candida albicans; type: cell-based; settings: percent inhibition >= 80%
[3] = system: Candida glabrata ATCC 15126; assay: Antifungal in vitro MIC, Candida glabrata; type: cell-based; settings: percent inhibition >= 80%
[4] = system: Candida parapsilosis ATCC 22019; assay: Antifungal in vitro MIC, Candida parapsilosis; type: cell-based; settings: percent inhibition >= 80%
[5] = system: Microsporum canis ATCC 10214; assay: Antifungal in vitro MIC, Microsporum canis; type: cell-based; settings: percent inhibition >= 80%
[6] = system: Aspergillus fumigatus ATCC 204305; assay: Antifungal in vitro MIC, Aspergillus fumigatus; type: cell-based; settings: percent inhibition >= 80%
[7] = system: Trichophyton mentagrophytes ATCC 10270; assay: Antifungal in vitro MIC, Trichophyton mentagrophytes; type: cell-based; settings: percent inhibition >= 80%
[8] = system: M. catarrhalis ATCC 25238; assay: MIC determination, M. catarrhalis ATCC 25238; type: cell-based; settings: Table 1
H. influenzae ATCC 49766 = assay: MIC determination, H. influenzae ATCC 49766; type: cell-based, Haemophilus influenzae; settings: Table 2

Compound	MIC (M. tuberculosis H37Rv)	MIC S. aureus ATCC 29213 (S. aureus ATCC 29213; Table 1)	MIC S. epidermidis ATCC 12228 ([1]; Table 1)	MIC S. pneumoniae ATCC 6301 (S. pneumoniae ATCC 6301)	MIC E. faecalis ATCC 29212 (E. faecalis ATCC 29212; Table 1)	MIC E. faecium CT-26 (E. faecium CT-26; Table 1)	M. tuberculosis MIC H37Rv (M. tuberculosis H37Rv)	other results
CC1COc2c(N3CCN(C)CC3)c(F)cc3c(=O)c(C(=O)O)cn1c23 (stereo not drawn) [Ofloxacin]	4 µg/mL (≈ 11.1 µM)	–	–	–	–	–	–	–
CCc1cc(C(N)=S)ccn1 [Ethionamide]	1 µg/mL (≈ 6.02 µM)	–	–	–	–	–	–	–
Oc1cccc2cccnc12 [Compound 10, 8-hydroxyquinoline]	–	1 micrograms per ml	2 micrograms per ml	2 micrograms per ml	32 micrograms per ml	4 micrograms per ml	0.387 µg/mL	–
CC[C@@H](CO)NCCN[C@@H](CC)CO [Ethambutol]	< 1 µg/mL	–	–	–	–	–	–	–
CCn1ccnc1COB(c1ccc(C)c(Cl)c1)c1ccc(C)c(Cl)c1 [Compound 129, Bis(3-Chloro-4-methylphenyl)borinic acid 1-ethyl-2-(hydroxymethyl)-imidazole ester]	–	–	–	–	–	–	–	MIC Candida albicans ATCC 90028 [2]: 1 µg/mL (≈ 2.58 µM); MIC Candida glabrata ATCC 15126 [3]: >32 µg/mL; MIC Candida parapsilosis ATCC 22019 [4]: 32 µg/mL (≈ 82.7 µM); MIC Microsporum canis ATCC 10214 [5]: 16 µg/mL (≈ 41.3 µM); MIC Aspergillus fumigatus ATCC 204305 [6]: >32 µg/mL; MIC Trichophyton mentagrophytes ATCC 10270 [7]: 32 µg/mL (≈ 82.7 µM)
Cc1ccc(B(OCc2nccn2C)c2ccc(C)c(Cl)c2)cc1Cl [Compound 128, Bis(3-Chloro-4-methylphenyl)borinic acid 1-methyl-2-(hydroxymethyl)-imidazole ester]	–	–	–	–	–	–	–	MIC Candida albicans ATCC 90028 [2]: 1 µg/mL (≈ 2.68 µM); MIC Candida glabrata ATCC 15126 [3]: 32 µg/mL (≈ 85.8 µM); MIC Candida parapsilosis ATCC 22019 [4]: 16 µg/mL (≈ 42.9 µM); MIC Microsporum canis ATCC 10214 [5]: 12 µg/mL (≈ 32.2 µM); MIC Aspergillus fumigatus ATCC 204305 [6]: >32 µg/mL; MIC Trichophyton mentagrophytes ATCC 10270 [7]: 16 µg/mL (≈ 42.9 µM)
Oc1cccc2cccnc12 [Compound 50, 8-hydroxyquinoline]	–	2 micrograms per ml	2 micrograms per ml	2 micrograms per ml	4 micrograms per ml	4 micrograms per ml	0.387 µg/mL	–
Oc1cccc2cccnc12 [Compound 55, 8-hydroxyquinoline]	–	2 micrograms per ml	1 micrograms per ml	2 micrograms per ml	4 micrograms per ml	2 micrograms per ml	0.775 µg/mL	MIC M. catarrhalis ATCC 25238 [8]: 4 micrograms per ml
Oc1cccc2cccnc12 [Compound 65, 8-hydroxyquinoline]	–	2 micrograms per ml	2 micrograms per ml	2 micrograms per ml	16 micrograms per ml	4 micrograms per ml	0.775 µg/mL	MIC M. catarrhalis ATCC 25238 [8]: 4 micrograms per ml
Cc1ccc(B(OCCc2ccccn2)c2ccc(C)c(Cl)c2)cc1Cl [Compound 131, Bis(3-Chloro-4-methylphenyl)borinic acid 2-pyridylethanol]	–	–	–	–	–	–	–	MIC Candida albicans ATCC 90028 [2]: 2 µg/mL (≈ 5.21 µM); MIC Candida glabrata ATCC 15126 [3]: >32 µg/mL; MIC Candida parapsilosis ATCC 22019 [4]: >32 µg/mL; MIC Microsporum canis ATCC 10214 [5]: 32 µg/mL (≈ 83.3 µM); MIC Aspergillus fumigatus ATCC 204305 [6]: >32 µg/mL; MIC Trichophyton mentagrophytes ATCC 10270 [7]: 32 µg/mL (≈ 83.3 µM)
Nc1ccc(C(=O)O)c(O)c1 [p-aminosalicylate]	–	–	–	–	–	–	<0.25 µg/mL	–
CO[C@H]1/C=C/O[C@@]2(C)Oc3c(C)c(O)c4c(O)c(c(/C=N/N5CCN(C)CC5)c(O)c4c3C2=O)NC(=O)/C(C)=C\C=C\[C@H](C)[C@H](O)[C@@H](C)[C@@H](O)[C@@H](C)[C@H](OC(C)=O)[C@@H]1C [Rifampicin]	< 0.125 µg/mL	–	–	–	–	–	–	–
Oc1cccc2cccnc12 [Compound 72, 8-hydroxyquinoline]	–	4 micrograms per ml	2 micrograms per ml	4 micrograms per ml	64 micrograms per ml	4 micrograms per ml	0.775 µg/mL	–
[H]/N=C(/N)N[C@H]1[C@H](O)[C@@H](O)[C@H](O[C@@H]2O[C@@H](C)[C@](O)(C=O)[C@H]2O[C@@H]2O[C@@H](CO)[C@H](O)[C@@H](O)[C@@H]2NC)[C@@H](N/C(N)=N\[H])[C@@H]1O [Streptomycin]	< 2 µg/mL	–	–	–	–	–	–	–
CC1(C)S[C@@H]2[C@H](NC(=O)Cc3ccccc3)C(=O)N2[C@H]1C(=O)O [Pen G, reference compound]	–	0.5 micrograms per ml	16 micrograms per ml	0.125 micrograms per ml	1 micrograms per ml	32 micrograms per ml	–	MIC S. aureus ATCC 29213 (S. aureus ATCC 29213; Table 2): 0.5 micrograms per ml; MIC S. epidermidis ATCC 12228 ([1]; Table 2): 16 micrograms per ml; MIC S. pneumonia ATCC 6301 (S. pneumoniae ATCC 6301; Table 2): <0.125 micrograms per ml; MIC E. faecalis ATCC 29212 (E. faecalis ATCC 29212; Table 2): 1 micrograms per ml; MIC E. faecium CT-26 (E. faecium CT-26; Table 2): 32 micrograms per ml; MIC M. catarrhalis ATCC 25238 [8]: 0.125 micrograms per ml; MIC H. influenzae ATCC 49766 (H. influenzae ATCC 49766): 0.12 micrograms per ml
NNC(=O)c1ccncc1 [Isoniazid (INH), Isoniazid]	< 0.062 µg/mL	–	–	–	–	–	–	–
N[C@@H]1CON=C1O [cycloserine]	8 µg/mL (≈ 78.4 µM)	–	–	–	–	–	–	–
NC[C@H]1O[C@H](O[C@H]2[C@H](O)[C@@H](O[C@H]3O[C@H](CO)[C@@H](O)[C@H](N)[C@H]3O)[C@H](N)C[C@@H]2N)[C@H](O)[C@@H](O)[C@@H]1O [Kanamycin]	< 2 µg/mL	–	–	–	–	–	–	–
OC(Cn1cncn1)(Cn1cncn1)c1ccc(F)cc1F [Fluconazole, reference compound]	–	–	–	–	–	–	–	MIC ([3]; Nakaseomyces glabratus, ATCC15126, read-out: MIC Candida glabrata ATCC 15126): 3 µg/mL (≈ 9.8 µM); MIC ([4]; Lodderomyces parapsilosis, ATCC22019, read-out: MIC Candida parapsilosis ATCC 22019): 2.5 µg/mL (≈ 8.16 µM); MIC ([5]; Microsporum canis, ATCC10214, read-out: MIC Microsporum canis ATCC 10214): 16 µg/mL (≈ 52.2 µM); MIC ([6]; Aspergillus fumigatus, ATCC204305, read-out: MIC Aspergillus fumigatus ATCC 204305): > 64 µg/mL; MIC ([7]; Trichophyton mentagrophytes, ATCC10270, read-out: MIC Trichophyton mentagrophytes ATCC 10270): 16 µg/mL (≈ 52.2 µM)
Oc1cccc2cccnc12 [Compound 51, 8-hydroxyquinoline]	–	2 micrograms per ml	1 micrograms per ml	–	8 micrograms per ml	2 micrograms per ml	0.387 µg/mL	–
Oc1cccc2cccnc12 [Compound 75, 8-hydroxyquinoline]	–	2 micrograms per ml	1 micrograms per ml	2 micrograms per ml	64 micrograms per ml	4 micrograms per ml	0.775 µg/mL	–
